Measured values published in US12070464B2, “Methods of treating myeloproliferative disorders” (priority 2019, dated 2024).

How the values were obtained:
[1] = test system: JAK inhibitor treatment naive myelofibrosis patients; type: in vivo, human
Description: A Phase 2 study of Compound 1 in subjects with myelofibrosis (MF) was conducted. Three treatment arms were studied:
Arm 3—combination treatment with Compound 1 and Rux in patients (pts) who have not previously been administered a JAK inhibitor, i.e., JAK inhibitor treatment naive. In this arm, key eligibility criteria of included JAKi naive myelofibrosis (MF) patients (pts) with Dynamic International Prognostic Scoring (DIPSS) score int-1 or higher, ECOG performance status ≤2, platelet counts (PLT) ≥100×109/L, peripheral blood blast count <10%, anemia (hemoglobin <10 g/dL), ≥5 cm palpable spleen, ≥2 symptoms measurable (score ≥3) or a total symptom score (c using the MFSAF v4.0. Primary endpoint: spleen volume response (SVR); key secondary endpoints: change in TSS, safety and PK; additional endpoints: changes in proinflammatory cytokine (Ck) levels, BM morphology and mutant allele burden.
The starting dose of Compound 1 was 125 mg given orally, once daily for 2 weeks on/1 week off in a 21-day dosing cycle. Two separate time points for data analysis occurred for at least Arms 1 and 2 and are discussed below: one at approximately 12 weeks of treatment (first assessment of spleen volume by MRI or CT and every 12 weeks thereafter) and another at approximately 24 weeks of treatment (first assessment of bone marrow biopsy and every 24 weeks thereafter). Patients were added to the study following the first time point.
Demographics and results are as follows: Baseline median age: 71 years (52-76), gender: 8 male (72.7%), ECOG ≤1: 10 (90.9%) patients, primary MF: 8 (72.7%) patients, DIPSS score: int-1/int-2/high: 2/7/2 patients, median platelet: 368×109/L (112-951), 9 (81.8%) patients with hemoglobin <10 g/dL, median spleen volume: 1379 cc (580-2807), median TSS: 11.8 (4.1-17), driver mutations: 11 (100%) with ≥1 JAK2/MPL/CALR mutations, HMR (high molecular risk) mutations: 6 […] patients, and ≥3 mutations: 4 (36%) patients. […] See FIG. 9, where * is data post cut off-date.

[2] = test system: patients with refractory or intolerant myelofibrosis already being administered Rux; test: Phase 2 study, Arm 2 (Compound 1 add-on to ruxolitinib); type: in vivo, human
Description: A Phase 2 study of Compound 1 in subjects with myelofibrosis (MF) was conducted. Three treatment arms were studied: Arm 2=combination add-on treatment of Compound 1 in patients (pts) who are already being administered Rux. In this arm patients were further stratified based on transfusion dependence status [transfusion dependent (TD), defined as an average of >2 units per month over 12 wks, or non-TD cohorts]. The starting dose of Compound 1 was 125 mg daily on days 1-14 of a 21-day cycle in both arms. Primary endpoint: spleen volume response (SVR) for non-TD cohorts or TD to transfusion independence (TI, no transfusion for consecutive 12 wks) conversion for TD cohorts; secondary endpoints: change in total symptom score (TSS) per […]4.0, patient global impression of change (PGIC), safety and PK; additional endpoints: changes in proinflammatory Ck levels, BM morphology and mutant allele burden. The starting dose of Compound 1 was 125 mg given orally, once daily for 2 weeks on/1 week off in a 21-day dosing cycle. Two separate time points for data analysis occurred for at least Arms 1 and 2 and are discussed below: one at approximately 12 weeks of treatment (first assessment of spleen volume by MRI or CT and every 12 weeks thereafter) and another at approximately 24 weeks of treatment (first assessment of bone marrow biopsy and every 24 weeks thereafter). Patients were added to the study following the first time point. Patients were added to the study following the first data cut and treatment was continued for approximately 25.9 weeks (median, range: 0.4, 116.6).

[3] = test system: CD34+ cells isolated from healthy donor bone marrow; test: Megakaryocyte differentiation, single agent, 14 days (FACS); type: cell-based; conditions: FIG. 2
Description: The effects of Compound 1 on megakaryocyte differentiation and proliferation were evaluated using CD34+ cells isolated from healthy donor bone marrow (data on file). The CD34+cells were grown in megakaryocyte differentiation serum-free stem cell differentiation base medium with a megakaryocyte-driving cytokine cocktail for 14 days with DMSO or Compound 1 at concentrations ranging from 3 nM to 500 nM. The cells were then stained for CD34 (progenitor marker), CD45 (leukocyte marker) and CD41a (mature megakaryocyte marker) and assessed by FACS for viability and marker expression. CD41a expression and cell size were used as markers of megakaryocyte differentiation. […] The shift from high to low CD41a expression began at approximately 50 nM, with pronounced effects observed at 200 to 500 nM, as shown in FIG. 2.

[4] = test system: IL6 release from the THP-1 acute leukemia cells; test: IL6 release from LPS-treated THP-1 cells; type: cell-based; conditions: Homo sapiens, lipopolysaccharide treatment, then Compound 1 for 16 hours
Description: Compound 1 was assessed for its ability to suppress the expression of NF-κB target genes in two experiments. In one experiment, THP-1 acute leukemia cell lines were exposed to lipopolysaccharide treatment and then Compound 1 for 16 hours. […] In the other experiment, the ability of Compound 1 to suppress both IL6 and ILIO expression in TMD8 ABC-DLBCL cells was investigated (data on file). TMD8 cells were incubated with DMSO or 1.6 μM Compound 1 for 6 or 24 hours. RNA was then extracted from the cells and quantified using qRT-PCR.

[5] = expanded population n=15, at least 12 weeks, FIG. 16
[6] = Time Point 1, Compound 1 with ruxolitinib

Cc1noc2c1-c1ccccc1C(c1ccc(Cl)cc1)=N[C@H]2CC(N)=O [Compound 1, 2-((4S)-6-(4-chlorophenyl)-1-methyl-4H-benzo[c]isoxazolo[4,5-e]azepin-4-yl)acetamide]
patients achieving ≥50% improvement in TSS ([1]; 4 patients on treatment for ≥12 weeks, with ruxolitinib): 100% | patients achieving ≥35% spleen volume reduction ([1]; 4 patients on treatment for ≥12 weeks, with ruxolitinib, FIG. 9): 100% | patients who had a TSS of ≥10 ([1]; expanded population n=15, FIG. 17): about 71% | patients with overall improvement in PGIC ([1]; expanded population n=15, FIG. 18): About 80% | SVR, average [1, 5]: about −49.7% | patients achieving ≥35% SVR [1, 5]: About 80% | DLTs and grade ≥3 thrombocytopenia ([1]; human, in vivo): no DLTs or grade ≥3 thrombocytopenia | most common TEAE observed in ≥2 patients ([1]; human, in vivo): anemia (1 grade 3), fatigue (all ≤grade 2), and non-cumulative reversible thrombocytopenia (all ≤grade 2) | TD patients converted to TI [2, 6]: 4 patients | duration of TI in 2 of the converted patients [2, 6]: > 36 wks | patients with increase in hemoglobin by 1.5 mg/dL post-baseline ([2]; Time Point 1, Compound 1 with ruxolitinib, 4 of 25): 16% | average spleen volume reduction ([2]; Time Point 2, 24 weeks, non-transfusion dependent at start, FIG. 12A): about −10.9% | average spleen volume reduction ([2]; Time Point 2, 24 weeks, transfusion dependent at start): about −24.9% | patients converted from transfusion dependent to transfusion independent ([2]; Time Point 2, 24 weeks, transfusion dependent at start, FIG. 10A): about 35% | average time of conversion from TD to TI ([2]; Time Point 2, Arm 2): about 14 weeks | average transfusion free time post-conversion ([2]; Time Point 2, Arm 2): about 14 weeks | maximum transfusion free time post-conversion ([2]; Time Point 2, Arm 2): 85 weeks | patients with greater than or equal to a 50% reduction in transfusion intensity ([2]; Time Point 2, Arm 2): About 41% | patients with improvement in bone marrow fibrosis ([2]; Time Point 2, non-transfusion dependent at start): about 25% | patients with improvement in disease symptoms per TSS ([2]; Time Point 2, non-transfusion dependent at start, FIG. 12B): About 38% | patients with improved PGIC ([2]; Time Point 2, non-transfusion dependent at start, FIG. 12C): about 69% | patients with improvement in disease symptoms per TSS ([2]; Time Point 2, transfusion dependent at start, FIG. 10B): About 76.5% | patients with improved PGIC ([2]; Time Point 2, transfusion dependent at start, FIG. 10C): about 75% | concentration at which shift from high to low CD41a expression began [3]: approximately 50 nM | IC50 [4]: 69 nM
